Here are results for ten compounds from article PMC6469168, “Localization of ^99mTc-GRP Analogs in GRPR-Expressing Tumors: Effects of Peptide Length and Neprilysin Inhibition on Biological Responses” (Pharmaceuticals, 2019).

Read-outs that look alike come from different tables or passages of the source. Where no end group is shown, it is not given here. The star is where a group is joined. DOTA = O=C(O)CN1CCN(CC(=O)O)CCN(CC(=O)*)CCN(CC(=O)O)CC1; N4 = tetraamine chelator for 99mTc

In assay [1] the target is T1, GRPR-sites on PC-3 cell membranes (Homo sapiens, UniProt P30550).
T1 construct: PC-3 cells endogenously expressing the human GRPR; host or cells: PC-3 cell-membrane homogenates
Put plainly: Competition binding against [^125I-Tyr^4]BBN in PC-3 cell membranes. Particulars: 1 h at 22 °C, 50 pM radioligand, triplicates per concentration, read-out: IC50, [^125I-Tyr^4]BBN displacement from GRPR-sites. How it is done: Moreover, coupling of the positively charged acyclic tetraamine unit in the N-terminus of parent GRP(14/18–27) references improved the affinity of resulting analogs to the GRPR, as previously reported for similarly modified peptide analogs.
(b) GRPR-specific internalization of ^99mTc-N4-GRP(14–27) (red solid line) and ^99mTc-N4-GRP(18–27) (blue solid line) in PC-3 cells during incubation at 37 °C at 15, 30, 60, and 120 min. Results represent average of cell internalized activity ± sd, n = 3; data is corrected for nonspecific internalization in the presence of 1 µM [Tyr^4]BBN.
Competition binding experiments against [^125I-Tyr^4] […] For the assay, triplicates per concentration point (concentration range: 10^−13–10^−6 M) of each test peptide were incubated together with the radioligand (~40,000 cpm per assay tube at a 50 pM concentration) in PC-3 cell-membrane homogenates in a total volume of 300 μL binding buffer (BB, 50 mM HEPES pH 7.4, 1% BSA, 5.5 mM MgCl2, 35 μM bacitracin) for 1 h at 22 °C in an Incubator-Orbital Shaker (MPM Instr. SrI, Bernareggio, Italy). Binding was interrupted by ice-cold washing buffer (WB, 10 mM HEPES pH 7.4, 150 mM NaCl) and rapid filtration (Whatman GF/B filters presoaked in BB) on a Brandel Cell Harvester (Adi Hassel Ing. Büro, Munich, Germany). Filters were washed with ice-cold WB and counted in an automatic well-type gamma counter (NaI(Tl) 3′-crystal, Cobra Packard Auto-Gamma 5000 series instrument). The IC50 values were calculated using nonlinear regression according to a one-site model applying the PRISM 2 program (Graph Pad Software, San Diego, CA, USA).

The target in assay [2] is T2, BB3R in human lung (bronchial) carcinoids (Homo sapiens, UniProt P32247).
T2 construct: from tissue; host or cells: human bronchial carcinoid cryostat sections
T2 sequence (P32247 1-399): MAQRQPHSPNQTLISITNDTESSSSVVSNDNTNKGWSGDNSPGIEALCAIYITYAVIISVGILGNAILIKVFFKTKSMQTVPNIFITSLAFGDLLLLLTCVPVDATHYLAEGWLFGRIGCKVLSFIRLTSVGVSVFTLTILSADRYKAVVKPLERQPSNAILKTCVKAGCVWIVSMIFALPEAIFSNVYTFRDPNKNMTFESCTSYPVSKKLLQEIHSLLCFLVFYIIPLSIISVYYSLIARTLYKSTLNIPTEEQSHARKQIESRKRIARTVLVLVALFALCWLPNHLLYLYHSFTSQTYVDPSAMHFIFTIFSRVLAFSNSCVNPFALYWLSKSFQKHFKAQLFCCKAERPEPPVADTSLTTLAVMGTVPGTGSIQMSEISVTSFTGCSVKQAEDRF
Briefly: Receptor autoradiography competition binding vs ^125I-[DTyr^6,βAla^11,Phe^13,Nle^14]BBN(6–14) in human tumor sections. Particulars: human lung (bronchial) carcinoid sections, same universal radioligand, mean ± SEM, n in parentheses, read-out: IC50s in nM, BB3R.
Text: IC50 values are given in nM ± SEM.

The subject of a further assay is GRPR. Particulars: DOTA-derivatized analogs; read-out: IC50, GRPR binding affinity; cited from earlier work. The source says:
It is interesting to note that the presence of the positively charged N4^+x-moiety at positions 13 and 17 of the native GRP chain occupy the two basic amino acids Lys^13 and Arg^17.

For assay [3], the target named is T3, GRPR expressed in human prostate cancer (Homo sapiens, UniProt P30550).
T3 construct: from tissue; host or cells: human prostate carcinoma cryostat sections
Particulars: receptor autoradiography, human prostate cancer sections; mean, n = 2; read-out: IC50s in nM, GRPR; cited from earlier work. An excerpt:
Table 1 Affinities for the three human bombesin receptor subtypes. | column: IC50s in nM / GRPR ^1 || The selective affinities of N4-GRP(14–27) for each of the three bombesin receptor subtypes found in mammals were studied during in vitro competition binding assays against the universal radioligand ^125I-[DTyr^6,βAla^11,Phe^13,Nle^14]BBN(6–14). Receptor autoradiography was applied in cryostat sections of well characterized human cancers, preferentially expressing one of the subtypes.

For assay [4], the target named is T2, BB3R in human lung (bronchial) carcinoids. Conditions: receptor autoradiography, human lung carcinoid sections; read-out: IC50s in nM, BB3R; cited from earlier work. The source says: Receptor autoradiography was applied in cryostat sections of well characterized human cancers, preferentially expressing one of the subtypes.
Assay [5] addresses T4, NMBR in human ileal carcinoids (Homo sapiens, UniProt P28336).
T4 construct: from tissue; host or cells: human ileal carcinoid cryostat sections
Conditions: receptor autoradiography, human ileal carcinoid sections; mean, n = 2; read-out: IC50s in nM, NMBR; cited from earlier work. The source says:
Table 1 Affinities for the three human bombesin receptor subtypes. | column: IC50s in nM / NMBR ^2 || The selective affinities of N4-GRP(14–27) for each of the three bombesin receptor subtypes found in mammals were studied during in vitro competition binding assays against the universal radioligand ^125I-[DTyr^6,βAla^11,Phe^13,Nle^14]BBN(6–14). Receptor autoradiography was applied in cryostat sections of well characterized human cancers, preferentially expressing one of the subtypes.

In the next assay the test system is PC-3 cells. Briefly: Internalization assay in PC-3 cells. It counts as cell-based, human. Conditions: 37 °C, corrected for nonspecific (1 µM [Tyr^4]BBN), average ± sd, n = 3. How it is done: In both cases the bulk of cell-associated radioactivity was found in the cells with ^99mTc-N4-GRP(14–27) internalizing much faster in PC-3 cells compared to ^99mTc-N4-GRP(18–27) at all time intervals (Figure 3b).
The internalization rates of ^99mTc-N4-GRP(14–27) and ^99mTc-N4-GRP(18–27) were compared in PC-3 cells. Briefly, PC-3 cells were seeded in six-well plates (~1 × 10^6 cells per well) 24 h before the experiment. Approximately 50,000 cpm of either ^99mTc-N4-GRP(14–27) or ^99mTc-N4-GRP(18–27) (corresponding to 250 fmol total peptide in 150 μL of 0.5% BSA/PBS) was added alone (total) or in the presence of 1 μM [Tyr^4]BBN (nonspecific). Cells were incubated at 37 °C for 15, 30, 60, and 120 min and incubation was interrupted each time by placing the plates on ice, removing the supernatants and rapid rinsing with ice-cold 0.5% BSA/PBS. Cells were then treated 2 × 5 min with acid wash buffer (2 × 0.6 mL, 50 mM glycine buffer pH 2.8, 0.1 M NaCl) at room temperature and supernatants were collected (membrane-bound fraction). After rinsing with 1 mL chilled 0.5% BSA/PBS, cells were lysed by treatment with 1 N NaOH (2 × 0.6 mL) and lysates were collected (internalized fraction). Sample radioactivity was measured in the γ-counter and percent internalized radioactivity was determined vs. total added activity. Results represent the average values ± sd of three experiments performed in triplicate.

T1 sequence (P30550 whole entry): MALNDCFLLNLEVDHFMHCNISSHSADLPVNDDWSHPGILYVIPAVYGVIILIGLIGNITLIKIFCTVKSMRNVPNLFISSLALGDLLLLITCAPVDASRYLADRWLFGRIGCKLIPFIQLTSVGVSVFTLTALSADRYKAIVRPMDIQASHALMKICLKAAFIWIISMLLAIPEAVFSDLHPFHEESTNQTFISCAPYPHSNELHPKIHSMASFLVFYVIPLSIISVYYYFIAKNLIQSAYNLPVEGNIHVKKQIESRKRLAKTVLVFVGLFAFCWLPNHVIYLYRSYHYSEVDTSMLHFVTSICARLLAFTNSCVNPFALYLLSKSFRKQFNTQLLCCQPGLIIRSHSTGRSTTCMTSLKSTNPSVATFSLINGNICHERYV
T3 sequence (P30550 whole entry): as above
T4 sequence (P28336 whole entry): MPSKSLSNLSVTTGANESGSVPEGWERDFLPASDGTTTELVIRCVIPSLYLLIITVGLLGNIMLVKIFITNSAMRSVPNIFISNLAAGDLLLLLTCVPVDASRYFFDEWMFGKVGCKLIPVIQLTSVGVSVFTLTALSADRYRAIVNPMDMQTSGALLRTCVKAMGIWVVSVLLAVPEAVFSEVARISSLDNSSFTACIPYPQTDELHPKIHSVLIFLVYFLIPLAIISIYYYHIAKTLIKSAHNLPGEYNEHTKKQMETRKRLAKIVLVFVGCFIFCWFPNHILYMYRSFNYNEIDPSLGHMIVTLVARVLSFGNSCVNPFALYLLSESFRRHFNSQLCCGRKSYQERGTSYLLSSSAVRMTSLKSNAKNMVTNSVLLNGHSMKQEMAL

In the case of `CSCC[C@H](NC(=O)[C@H](CC(C)C)NC(=O)[C@H](Cc1c[nH]cn1)NC(=O)CNC(=O)[C@@H](NC(=O)[C@H](C)NC(=O)[C@H](Cc1c[nH]c2ccccc12)NC(=O)[C@H](Cc1c[nH]cn1)NC(=O)[C@H](CC(N)=O)NC(=O)CNC(=O)[C@H](CCCNC(=N)N)NC(=O)[C@@H]1CCCN1C(=O)[C@H](Cc1ccc(O)cc1)NC(=O)[C@@H](N)CCSC)C(C)C)C(N)=O` [GRP(14–27)], the IC50 in assay [1] was 0.45 ± 0.02 nM.

Turning to `CSCC[C@H](NC(=O)[C@H](CC(C)C)NC(=O)[C@H](Cc1cnc[nH]1)NC(=O)CNC(=O)[C@@H](NC(=O)[C@H](C)NC(=O)[C@H](Cc1c[nH]c2ccccc12)NC(=O)[C@H](Cc1cnc[nH]1)NC(=O)[C@H](CC(N)=O)NC(=O)CN)C(C)C)C(N)=O` [GRP(18–27), H-Gly-Asn-His-Trp-Ala- Val-Gly-His-Leu-Met-NH2], the IC50 in assay [1] was 1.66 ± 0.2 nM.

As to `CSCC[C@H](NC(=O)[C@H](CC(C)C)NC(=O)[C@H](Cc1c[nH]cn1)NC(=O)CNC(=O)[C@@H](NC(=O)[C@H](C)NC(=O)[C@H](Cc1c[nH]c2ccccc12)NC(=O)[C@H](Cc1c[nH]cn1)NC(=O)[C@H](CC(N)=O)NC(=O)CNC(=O)[C@H](CCCNC(=N)N)NC(=O)[C@@H]1CCCN1C(=O)[C@H](Cc1ccc(O)cc1)NC(=O)[C@H](CCSC)NC(=O)C(CNCCN)CNCCN)C(C)C)C(N)=O` [N4-GRP(14–27)], the values for the IC50 in assay [1] and in assay [2] were 0.32 ± 0.03 nM and greater than 1000 nM, respectively.

As to `CSCC[C@H](NC(=O)[C@H](CC(C)C)NC(=O)[C@H](Cc1c[nH]cn1)NC(=O)CNC(=O)[C@@H](NC(=O)[C@H](C)NC(=O)[C@H](Cc1c[nH]c2ccccc12)NC(=O)[C@H](Cc1c[nH]cn1)NC(=O)[C@H](CC(N)=O)NC(=O)CNC(=O)C(CNCCN)CNCCN)C(C)C)C(N)=O` [N4-GRP(18–27)], the IC50 in assay [1] was found to be 0.63 ± 0.06 nM.

Turning to “DOTA-GRP(14–27): GRP(14–27) coupled to DOTA, previously reported ({DOTA}-MYPRGNHWAVGHLM-NH2; ends and bridges not checked; UniProt P07492 37-50, looked up, fragment)”, in the assay on GRPR, the IC50 was 6.6 ± 0.9 nM.

For “DOTA-GRP(18–27): GRP(18–27) coupled to DOTA, previously reported”, the IC50 in the assay with GRPR is 112 ± 16 nM.

For the compound “N4-[Pro^1,Tyr^4]BBN (PQRYGNQWAVGHLM) [Demobesin 3, tetraamine derivatized BBN-like analog]”, the figures for the IC50 in assay [3] and in assay [4] were 0.5 nM and greater than 100 nM, respectively.

Take “N4-[Pro^1,Tyr^4]BBN (PQRYGNQWAVGHLM; not fully specified (N-terminus); ends and bridges not checked) [Demobesin 3, tetraamine derivatized BBN-like analog]”: the IC50 in assay [5] is 1.6 nM.

Regarding “^99mTc-N4-GRP(14–27): ^99mTc-labeled N4-GRP(14–27) radioligand (N4-MYPRGNHWAVGHLM-NH2; ends and bridges not checked; also: 99mTc complex at N4; UniProt P07492 37-50, looked up, fragment)”, the “specifically internalized, % of total added activity” value was found to be 12.7 ± 0.7% in the assay with PC-3 cells (1 h) and 19.5 ± 1.4% with PC-3 cells (2 h).

Take “^99mTc-N4-GRP(18–27): ^99mTc-labeled N4-GRP(18–27) radioligand (N4-GNHWAVGHLM-NH2; ends and bridges not checked; also: 99mTc complex at N4; UniProt P07492 41-50, looked up, fragment)”: the “specifically internalized, % of total added activity” value in the assay with PC-3 cells (1 h) was determined as 5.0 ± 0.3%; in the assay with PC-3 cells (2 h) it was 6.9 ± 1.5%.
